# According to patent publication US20260265199A1, “CRYSTALLINE FORMS OF (R)-2-AMINO-5-(4-(2-(3,5-DIFLUOROPHENYL)-2-HYDROXYACETAMIDO)-2-METHYLPHENYL)-N-ISOPROPYLNICOTINAMIDE AND METHODS FOR USING THE SAME” (HIBERCELL, INC., priority 2023, published 2026):
# Entries after “also recorded” stand apart in the source; their conditions may differ. Read-outs that look alike come from different tables or passages of the source.
# Assays:
# Assay type in all cases: physicochemical
# [1] = Solubility study of Form A of the compound of formula (I) in solvents (aliquot addition, visual); conditions: thermodynamic from solid, room temperature, read-out: Approximate Solubility
# Method: A solubility study of Form A in various solvent systems was conducted according to the following protocol: aliquots of the test solvent systems were added to weighed samples of Form A, prepared according to Example 27, at room temperature. The resulting mixtures were sonicated between solvent additions to facilitate dissolution. Complete dissolution of the test material was determined visually. The solubility was estimated based on the total solvent used to provide complete dissolution.
# [2] = Water activity study of Form A of the compound of formula (I); conditions: for Result (XRPD of solids): ambient; for Solid form (XRPD) after storage in solvent mixture: ambient conditions
# Method: The water activity study was conducted using the following protocol: solutions were prepared by adding a sufficient amount of Form A, prepared according to Example 27, to a given solvent mixture such that excess solids were present. The mixture was then agitated for a predetermined period of time (Table 31) in a sealed vial under ambient conditions. After agitation, the solids were isolated for analysis and characterized using XRPD.
# [3] = Dynamic vapor sorption (5% to 95% RH, Example 26 method)
# Method: Automated vapor sorption (VS) data were collected on a Surface Measurement System DVS Intrinsic instrument, or a VTI SGA-100 instrument. Samples were not dried prior to analysis. Sorption and desorption data were collected over a range from 5% to 95% RH at 10% RH increments under a nitrogen purge. The equilibrium criterion used for analysis was less than 0.0100% weight change in 5 minutes with a maximum equilibration time of 3 hours. Data were not corrected for the initial moisture content of the samples.
# [4] = Relative humidity stressing of Form D; conditions: ambient
smiles,measurement,setting,value
"Cc1cc(NC(=O)[C@H](O)c2cc(F)cc(F)c2)ccc1-c1cnc(N)c(C(=O)NC(C)C)c1 [Form A of the compound of formula (I), (R)-2-amino-5-(4-(2-(3,5-difluorophenyl)-2-hydroxyacetamido)-2-methylphenyl)-N-isopropylnicotinamide]",solubility,"[1]; organic solvent or mixture, acetone",> 115 mg/mL
same,solubility,"[1]; organic solvent or mixture, acetonitrile",12 mg/mL
same,solubility,"[1]; organic solvent or mixture, chloroform",< 3 mg/mL
same,solubility,"[1]; organic solvent or mixture, diethyl ether",< 2 mg/mL
same,solubility,"[1]; organic solvent or mixture, ethanol",49 mg/mL
same,solubility,"[1]; organic solvent or mixture, ethyl acetate",26 mg/mL
same,solubility,"[1]; organic solvent or mixture, heptane",< 3 mg/mL
same,solubility,"[1]; organic solvent or mixture, isopropyl alcohol",14 mg/mL
same,solubility,"[1]; organic solvent or mixture, methanol",103 mg/mL
same,solubility,"[1]; organic solvent or mixture, tetrahydrofuran",> 150 mg/mL
same,solubility,"[1]; organic solvent or mixture, toluene",< 4 mg/mL
same,solubility,[1]; water,< 3 mg/mL
same,Result (XRPD of solids),"[2]; IPA/water 90:10 v/v, 0.67 aw, 27 days",Form H
same,Result (XRPD of solids),"[2]; MeCN/water 92:8 v/v, 0.82 aw, 4 days",Form C
same,Solid form (XRPD) after storage in solvent mixture,"[2]; acetonitrile/water (92:8 v/v), four days",Form C
same,Solid form (XRPD) after storage in solvent mixture,"[2]; isopropanol/water (90:10 v/v), 27 days",Form H
same,Solid form (XRPD) after storage in solvent mixture,"[2]; isopropanol/water (94:6 v/v), four days",mixture of Form A and Form H
same,Result (XRPD of solids),"[2]; water/acetone 80:20 v/v, 0.96 aw, 4 days",Form A*
same,Solid form (XRPD) after storage in solvent mixture,"[2]; water/acetone (80:20 v/v), four days",Form A
"Cc1cc(NC(=O)[C@H](O)c2cc(F)cc(F)c2)ccc1-c1cnc(N)c(C(=O)NC(C)C)c1 [Form D, (R)-2-amino-5-(4-(2-(3,5-difluorophenyl)-2-hydroxyacetamido)-2-methylphenyl)-N-isopropylnicotinamide]",Solid form recovered from the DVS experiment (XRPD),[3],remained as Form D
same,Weight gain and loss through the sorption/desorption cycle (DVS),[3]; 5 to 95% RH,approximately 1.9%
same,Hygroscopicity (DVS),[3]; from 5 to 95% RH,limited hygroscopicity
same,Observation,"[4]; 75% RH, 4 days",Free flowing
same,Result (XRPD form),"[4]; 75% RH, 4 days",remained physically stable; also recorded: Form D
same,Observation,"[4]; 97% RH, 20 days",Free flowing
same,Result (XRPD form),"[4]; 97% RH, 20 days",no phase changed had occurred; also recorded: remained physically stable; also recorded: Form D
